Assays:
HIV-1MDR/C = assay: p24 production inhibition in PHA-PBMC; type: cell-based
Procedure: (§1) The susceptibility of HIV-1LAI or HIV-2ROD to various compounds was determined as previously described[20]–[22]. Briefly, MT-2 cells (10^4/ml) were exposed to 100 TCID50 of HIV-1LAI or HIV-2ROD in the presence or absence of various concentrations of compounds in 96-well plates and were incubated at 37 °C for 7 days. After incubation, 100 μl of the medium was removed from each well, 3-(4,5-dimetylthiazol-2-yl)-2,5-diphenyltetrazolium bromide (MTT) solution (10 μl, 7.5 mg/ml in PBS) was added to each well, followed by incubation at 37 °C for 2 h. […] To determine the sensitivity of clinically isolated HIV-1s to compounds, PHA-PBMC (10^6/ml) were exposed to 50 TCID50 of each HIV-1 and cultured in the presence or absence of various concentrations of compounds in 10-fold serial dilutions in 96-well plates. In determining the drug-susceptibility of certain laboratory HIV-1 strains, MT-4 cells were employed as target cells as previously described[23],[24]. MT-4 cells (10^5/ml) were exposed to 100 TCID50 of drug-resistant HIV-1s in the presence or absence of various concentrations of compounds and were incubated at 37 °C. On day 7, the supernatants were harvested and the amounts of p24 were determined by using a fully-automated chemiluminescent enzyme immunoassay system (Lumipulse f: Fujirebio, Tokyo)[35]–[37]. […] All assays were performed in duplicate, and EC50 shown in this report represent average values of two to four independent experiments. PHA-PBMCs were derived from a single donor in each independent experiment. The research protocols described in the present study were carried out in accordance with relevant guidelines and regulations, and were approved in Ethics Committee for Epidemiological and General Research at the Faculty of Life Sciences, Kumamoto University.

HIV-1MDR/TM = assay: p24 production inhibition in PHA-PBMC; type: cell-based
Procedure: as §1

HIV-1MDR/G = assay: p24 production inhibition in PHA-PBMC; type: cell-based
Procedure: as §1

HIV-1MDRmix DRV ^R 20P = assay: p24 production inhibition in PHA-PBMC; type: cell-based
Procedure: as §1

HIV-1BaL (subtype B, R5) = assay: p24 production inhibition in PHA-PBMC; type: cell-based; settings: Human immunodeficiency virus 1, PHA-PBMC, p24 Gag production
Procedure: as §1

[1] = tested on: HIV-1ERS104pre (wild-type); assay: p24 production inhibition in PHA-PBMC; type: cell-based; settings: Human immunodeficiency virus 1, PHA-PBMC, p24 Gag production
Procedure: as §1

[2] = tested on: HIV-1ME46 (subtype B, X4/R5); assay: p24 production inhibition in PHA-PBMC; type: cell-based; settings: Human immunodeficiency virus 1, PHA-PBMC, p24 Gag production
Procedure: as §1

HIV-1MDR/B = assay: p24 production inhibition in PHA-PBMC; type: cell-based
Procedure: as §1

HIV-1LPV ^R 5μM = assay: p24 production inhibition in MT-4 cells; type: cell-based
Procedure: as §1

[3] = Cytotoxicity against MT-2 cells (MTT assay); type: cell-based; settings: human
Procedure: as §1

HIVMDR strains = assay: p24 production inhibition in PHA-PBMC, summary over HIVMDR strains; type: cell-based, HIV-1; settings: Human immunodeficiency virus 1, range over clinical HIVMDR isolates, read-out: EC50 values against HIVMDR
Procedure: (§2) The susceptibility of HIV-1LAI or HIV-2ROD to various compounds was determined as previously described[20]–[22]. Briefly, MT-2 cells (10^4/ml) were exposed to 100 TCID50 of HIV-1LAI or HIV-2ROD in the presence or absence of various concentrations of compounds in 96-well plates and were incubated at 37 °C for 7 days. After incubation, 100 μl of the medium was removed from each well, 3-(4,5-dimetylthiazol-2-yl)-2,5-diphenyltetrazolium bromide (MTT) solution (10 μl, 7.5 mg/ml in PBS) was added to each well, followed by incubation at 37 °C for 2 h. […] To determine the sensitivity of clinically isolated HIV-1s to compounds, PHA-PBMC (10^6/ml) were exposed to 50 TCID50 of each HIV-1 and cultured in the presence or absence of various concentrations of compounds in 10-fold serial dilutions in 96-well plates. In determining the drug-susceptibility of certain laboratory HIV-1 strains, MT-4 cells were employed as target cells as previously described[23],[24]. MT-4 cells (10^5/ml) were exposed to 100 TCID50 of drug-resistant HIV-1s in the presence or absence of various concentrations of compounds and were incubated at 37 °C. On day 7, the supernatants were harvested and the amounts of p24 were determined by using a fully-automated chemiluminescent enzyme immunoassay system (Lumipulse f: Fujirebio, Tokyo)[35]–[37]. […]

[4] = tested on: laboratory and primary clinical HIV-1 isolates; assay: Antiviral activity, summary over strains; type: cell-based; settings: Human immunodeficiency virus 1; range over isolates; read-out: EC50 against laboratory and primary clinical HIV-1 isolates
Procedure: as §2

HIV-1NL4-3 = assay: In vitro selection of resistant HIV-1 variants in MT-4 cells; type: cell-based
Excerpt: MT-4 cells (10^5/ml) were exposed to HIV-1NL4-3 (500 TCID50) and cultured in the presence of compounds at an initial concentration of its EC50 value. Viral replication was monitored by the determination of the amount of p24 produced by MT-4 cells. The supernatants were harvested on day 7 and were used to infect fresh MT-4 cells for the next round of culture in the presence of increasing concentrations of each compound. Proviral DNAs obtained from the lysates of infected cells were subjected to sequencing. This selection procedure was carried out until the drug concentration reached 5 μM as previously described[20]–[22]).

HIV-1LAI = assay: microbe, parasite or virus in culture; type: cell-based
Procedure: as §1

HIV-2ROD = assay: microbe, parasite or virus in culture; type: cell-based
Procedure: as §1

[5] = tested on: HIV-1NL4-3 variants selected with ATV, LPV and APV; assay: p24 assay in MT-4 cells, summary over PI-selected variants; type: cell-based
Procedure: as §2

HIV-1I47V = assay: p24 assay in MT-4 cells, recombinant clone; type: cell-based; settings: Human immunodeficiency virus 1, MT4
Procedure: as §1
(§3) To generate HIV-1 clones carrying the desired AA substitutions, site-directed mutagenesis was performed with a QuikChange site-directed mutagenesis kit (Stratagene, La Jolla, CA), and the AA substitution-containing genomic fragments were introduced into pHIV-1NL4-3Sma, which had been created to have a SmaI site by changing two nucleotides (2590 and 2593) of pHIV-1NL4-3.

HIV-1T91A = assay: p24 assay in MT-4 cells, recombinant clone; type: cell-based; settings: Human immunodeficiency virus 1, MT4
Procedure: as §1, §3

HIV-1I84V = assay: p24 assay in MT-4 cells, recombinant clone; type: cell-based; settings: Human immunodeficiency virus 1, MT4
Procedure: as §1, §3

HIV-1L10F = assay: p24 assay in MT-4 cells, recombinant clone; type: cell-based; settings: Human immunodeficiency virus 1, MT4
Procedure: as §1, §3

[6] = tested on: HIV-192UG029 (subtype A, X4); assay: p24 production inhibition in PHA-PBMC; type: cell-based, HIV-1; settings: Human immunodeficiency virus 1, read-out: EC50 HIV-192UG029 (subtype A, X4)
Procedure: as §1

[7] = compared to EC50 for HIV-1ERS104pre
[8] = compared to HIV-1WT/ERS104pre, Supplemental Table 4

With `COc1ccc(S(=O)(=O)N(CC(C)C)CC(O)C(Cc2ccccc2)NC(=O)OC2C3COC4OCC2C4C3)cc1` (centres unmarked) [GRL-09510] the EC50 (HIV-1MDR/C; Human immunodeficiency virus 1, PHA-PBMC, p24 Gag production) was 3.2 ± 0.6 nM, the “fold change of EC50 HIV-1MDR/C” value (HIV-1MDR/C; [7]) was 1 and the EC50 (HIV-1MDR/TM; PHA-PBMC, p24 Gag production) was 4 ± 0.6 nM. The “fold change of EC50 HIV-1MDR/TM” value (HIV-1MDR/TM; [7]) was 1, the EC50 (HIV-1MDR/G; PHA-PBMC, p24 Gag production) was 3.3 ± 1.4 nM and the “fold change of EC50 HIV-1MDR/G” value (HIV-1MDR/G; [7]) was 1. The “fold change in EC50 HIV-1MDR/G” value (HIV-1MDR/G; [8]) was 1, the “fold more effective than DRV against HIV-1DRV ^R 20P” value (HIV-1MDRmix DRV ^R 20P; PHA-PBMC, p24) was 12 fold and the “fold change of EC50 HIV-1MDRmix DRV ^R 20P” value (HIV-1MDRmix DRV ^R 20P; [7]) was 7. For the same molecule, the “fold change in EC50 HIV-1MDRmixDRVR20P” value (HIV-1MDRmix DRV ^R 20P; [8]) was 7, the EC50 (HIV-1MDRmix DRV ^R 20P; read-out: EC50 HIV-1MDRmix DRV ^R 20P, PHA-PBMC, p24 Gag production) was 25 ± 1 nM and the EC50 (HIV-1BaL (subtype B, R5)) was 3.1 ± 0.4 nM. It also gave an EC50 [1] of 3.5 ± 0.1 nM, an EC50 [2] of 1.2 ± 0.2 nM and an EC50 (HIV-1MDR/B; PHA-PBMC, p24 Gag production) of 3.7 ± 0.1 nM. The “fold change of EC50 HIV-1MDR/B” value (HIV-1MDR/B; [7]) was 1, the “fold change of EC50 HIV-1LPV ^R 5μM” value (HIV-1LPV ^R 5μM; number in parentheses, compared to HIV-1NL4-3) was 1 and the EC50 (HIV-1LPV ^R 5μM; read-out: EC50 HIV-1LPV ^R 5μM, MT-4 cells, p24 Gag production) was 3.9 ± 0.5 nM. It also gave a CC50 [3] of 39000 ± 700 nM, an EC50 (HIVMDR strains) of 3.2 to 4 nM and an EC50 [4] of 1.4 to 2.8 nM. For the same molecule, the “selection concentration reached after 24 passages” value (HIV-1NL4-3; HIV-1NL4-3 first exposed to 0.003 µM) was 0.105 µM, the “concentrations in which the virus began continuously failing to propagate” value (HIV-1NL4-3; at around passage 30, selection discontinued at passage 37) was over 0.27 µM and the “fold greater selection concentration than the initial concentration after 24 passages” value (HIV-1NL4-3; initial 0.003 µM) was 35 fold. For the same molecule, the EC50 (HIV-1LAI; Human immunodeficiency virus 1, MT2, MT-2 cells, 100 TCID50, MTT assay, read-out: EC50 Against HIV-1LAI) was 1.4 ± 0.9 nM, the “Selectivity Index (CC50/EC50) MT2/HIV-1LAI” value (HIV-1LAI; ratio of CC50 to EC50 against HIV-1LAI) was 27,857 and the EC50 (HIV-2ROD; MT-2 cells, 100 TCID50, MTT assay, read-out: EC50 Against HIV-2ROD) was 1.8 ± 0.1 nM. For the same molecule, the “Selectivity Index (CC50/EC50) MT2/HIV-2ROD” value (HIV-2ROD; ratio of CC50 to EC50 against HIV-2ROD) was 21,667, the EC50 ([5]; Human immunodeficiency virus 1, MT4, MT-4 cells, variants selected with up to 5 µM ATV, LPV, APV, read-out: EC50 against PI-selected HIV-1NL4-3 variants) was 3.7 to 4.8 nM and the “fold-differences of EC50 against PI-selected variants” value ([5]; compared to against HIV-1NL4-3) was 1~2. The EC50 (HIV-1I47V) was 3.6 ± 0.5 nM, the EC50 (HIV-1T91A) was 3.3 ± 0.4 nM and the EC50 (HIV-1I84V) was 3.3 ± 0.3 nM. For the same molecule, the EC50 (HIV-1L10F) was 4.4 ± 0.2 nM and the EC50 [6] was 2.7 ± 0.1 nM.
